Test results published in US20100305124A1, “Acylated Aminopyridine and Aminopyridazine Insecticides” (BAYER CROPSCIENCE AG, priority 2009, published 2010).

The compounds below were run on green peach aphid (Myzus persicae) (assay: Myzus test (MYZUPE), sprayed aubergine plants). Conditions: application rate of 100 ppm, spray on aubergine plants, read-out: effect in % (aphids killed).
Assay type: in vivo
Description: Solvent: 3 parts by weight of dimethylformamide Emulsifier: 1 part by weight of polyoxyethylenealkyl phenyl ether
An appropriate preparation of active ingredient is prepared by mixing 1 part by weight of active ingredient with the stated amount of solvent and emulsifier and diluting the concentrate with water to the desired concentration.
Aubergine plants (Solanum melongena) infested by all stages of the green peach aphid (Myzus persicae) are sprayed with a preparation of active ingredient at the desired concentration.
After the desired time, the effect in % is determined; here, 100% means that all of the aphids have been killed. Conversely, 0% means that no aphids have been killed.

SMILES	pest or weed control at 100 ppm [%]
CCSc1ccc(C(=O)N(CC)c2cccnc2)cc1 [I-65]	≥ 80
CN(C(=O)c1ccc(Oc2ccc(OC(F)(F)F)cc2)nc1)c1cccnc1 [I-95]	≥ 80

Same assay, conditions: application rate of 500 ppm, spray on aubergine plants, read-out: effect in % (aphids killed)

SMILES	pest or weed control at 500 ppm [%]
CN(C(=O)c1ccc(Cn2nc(C(F)(F)F)cc2C(F)(F)F)nc1)c1cccnc1 [I-49]	≥ 80
CN(C(=O)c1ccc(Cn2nc(C(F)(F)F)nc2C(F)(F)F)nc1)c1cccnc1 [I-50]	≥ 80
CN(C(=O)c1ccc(NC(=O)CC(F)(F)F)cc1)c1cccnc1 [I-51]	≥ 80
CN(C(=O)c1ccc(NC(=O)C(F)(F)F)cc1)c1cccnc1 [I-52]	≥ 80
CSc1ccc(C(=O)N(C)c2cccnc2)cc1 [I-53]	≥ 80
CN(C(=O)c1ccc(SC(F)(F)F)cc1)c1cccnc1 [I-54]	≥ 80
CCSc1ccc(C(=O)Nc2cccnc2)cc1 [I-55]	≥ 80
CCSc1ccc(C(=O)N(C)c2cccnc2)cc1 [I-56]	≥ 80
CSCc1cccc(C(=O)N(C)c2cccnc2)c1 [I-57]	≥ 80
CCSCc1ccc(C(=O)N(C)c2cccnc2)cc1 [I-58]	≥ 80
CSCc1ccc(C(=O)N(C)c2cccnc2)cc1 [I-59]	≥ 80
CCCSCc1ccc(C(=O)N(C)c2cccnc2)cc1 [I-60]	≥ 80
CC(C)SCc1ccc(C(=O)N(C)c2cccnc2)cc1 [I-61]	≥ 80
CN(C(=O)c1ccc(CSC(F)F)cc1)c1cccnc1 [I-62]	≥ 80
CCN(C(=O)c1ccc(SC)cc1)c1cccnc1 [I-63]	≥ 80
CSCc1ccc(C(=O)N(C)c2cccnc2)cn1 [I-64]	≥ 80
CSc1ccc(C(=O)N(C)c2cccnc2)cc1F [I-66]	≥ 80
CCN(C(=O)c1ccc(SC)c(F)c1)c1cccnc1 [I-67]	≥ 80
CCCSc1ccc(C(=O)Nc2cccnc2)cc1 [I-68]	≥ 80
CSc1cccc(C(=O)N(C)c2cccnc2)c1 [I-69]	≥ 80
Cc1cc(C)nc(SCc2ccc(C(=O)N(C)c3cccnc3)cc2)n1 [I-70]	≥ 80
CCN(C)C(=O)c1cccc(C(=O)Nc2cccnc2)c1 [I-71]	≥ 80

SMILES	pest or weed control at 500 ppm [%]
CCN(C)C(=O)c1cccc(C(=O)N(C)c2cccnc2)c1 [I-74]	≥ 80
CC(C)NC(=O)c1cccc(C(=O)N(C)c2cccnc2)c1 [I-75]	≥ 80
CCN(C)C(=O)c1cc(C(=O)Nc2cccnc2)ccc1OC [I-76]	≥ 80
CCN(C)C(=O)c1cc(C(=O)N(C)c2cccnc2)ccc1OC [I-77]	≥ 80
COc1ccc(C(=O)Nc2cccnc2)cc1C(=O)NC(C)C [I-78]	≥ 80
COc1ccc(C(=O)N(C)c2cccnc2)cc1C(=O)NC(C)C [I-79]	≥ 80
Cc1ccc(Oc2ccc(C(=O)N(C)c3cccnc3)cn2)cn1 [I-80]	≥ 80
COc1ccc(Oc2ccc(C(=O)Nc3cccnc3)cn2)cc1 [I-81]	≥ 80
O=C(Nc1cccnc1)c1ccc(Oc2ccccc2Cl)nc1 [I-82]	≥ 80
O=C(Nc1cccnc1)c1ccc(Oc2cccc(Cl)c2)nc1 [I-83, 6-(3-Chlorophenoxy)-N-pyridin-3-ylnicotinamide]	≥ 80
O=C(Nc1cccnc1)c1ccc(Oc2ccc(Br)cc2)nc1 [I-84]	≥ 80
O=C(Nc1cccnc1)c1ccc(Oc2cccc(C(F)(F)F)c2)nc1 [I-88]	≥ 80
COC(=O)c1cncc(Oc2ccc(C(=O)Nc3cccnc3)cn2)c1 [I-89]	≥ 80
CN(C(=O)c1ccc(Oc2ccc(C#N)cc2)nc1)c1cccnc1 [I-90]	≥ 80
CN(C(=O)c1ccc(Oc2ccc(Cl)cc2)nc1)c1cccnc1 [I-91]	≥ 80
COc1ccc(Oc2ccc(C(=O)N(C)c3cccnc3)cn2)cc1 [I-92]	≥ 80
CN(C(=O)c1ccc(Oc2ccc([N+](=O)[O-])cc2)nc1)c1cccnc1 [I-93]	≥ 80
Cc1ccccc1Oc1ccc(C(=O)N(C)c2cccnc2)cn1 [I-96]	≥ 80
Cc1cccc(Oc2ccc(C(=O)N(C)c3cccnc3)cn2)c1 [I-97]	≥ 80
CN(C(=O)c1ccc(Oc2ccccc2Cl)nc1)c1cccnc1 [I-98]	≥ 80
CN(C(=O)c1ccc(Oc2cccc(Cl)c2)nc1)c1cccnc1 [I-99]	≥ 80
CN(C(=O)c1ccc(Oc2cccc(C(F)(F)F)c2)nc1)c1cccnc1 [I-100]	≥ 80

SMILES	pest or weed control at 500 ppm [%]
CN(C(=O)c1ccc(Oc2ccc(S(C)(=O)=O)cc2)nc1)c1cccnc1 [I-101]	≥ 80
Cc1ccc(Oc2ccc(C(=O)N(C)c3cccnc3)cn2)cc1 [I-102]	≥ 80
Cc1ccc(Oc2ccc(C(=O)Nc3cccnc3)cc2)cn1 [I-103]	≥ 80
Cc1cc(C)nc(Sc2ccc(C(=O)N(C)c3cccnc3)cn2)n1 [I-104]	≥ 80
Cc1ccc(Sc2ccc(C(=O)N(C)c3cccnc3)cn2)cc1 [I-105]	≥ 80
COc1ccc(Sc2ccc(C(=O)N(C)c3cccnc3)cn2)cc1 [I-106]	≥ 80
CN(C(=O)c1ccc(Sc2ccc(Cl)cc2)nc1)c1cccnc1 [I-107]	≥ 80
CSc1ccc(C(=O)Nc2cccnc2)cn1 [I-108]	≥ 80
O=C(Nc1cccnc1)c1ccc(Oc2ccc(C(F)(F)F)cc2)nc1 [I-109]	≥ 80
CSc1ccc(C(=O)N(C)c2cccnc2)cn1 [I-110]	≥ 80
CN(C(=O)c1ccc(Oc2cccc(C#N)c2)nc1)c1cccnc1 [I-112]	≥ 80
CN(C(=O)c1ccc(Oc2ccc(Cl)cc2C#N)nc1)c1cccnc1 [I-113]	≥ 80
CN(C(=O)c1ccc(Oc2ccc(Cl)cc2Cl)nc1)c1cccnc1 [I-114]	≥ 80
CN(C(=O)c1ccc(Oc2ccc(Cl)c(Cl)c2)nc1)c1cccnc1 [I-115]	≥ 80
CN(C(=O)c1ccc(Oc2ccc(OC(F)(F)F)cc2)nc1)c1cccnc1 [I-116]	≥ 80
CN(C(=O)c1ccc(Oc2ccc(C(F)(F)F)cc2)nc1)c1cccnc1 [I-117]	≥ 80
CN(C(=O)c1ccc(Sc2ccc(C(F)(F)F)cc2)nc1)c1cccnc1 [I-118]	≥ 80
CN(C(=O)c1ccc(Sc2ccc(C(F)(F)F)cn2)nc1)c1cccnc1 [I-119]	≥ 80
CN(C(=O)c1ccc(Oc2cc(Cl)cc(Cl)c2)nc1)c1cccnc1 [I-123]	≥ 80
CN(C(=O)c1ccc(Oc2cc(C(F)(F)F)cc(C(F)(F)F)c2)nc1)c1cccnc1 [I-124]	≥ 80
CN(C(=O)c1ccc(Oc2ccc(-n3cncn3)cc2)nc1)c1cccnc1 [I-128]	≥ 80
CC(C)S(=O)(=O)c1ccc(Oc2ccc(C(=O)N(C)c3cccnc3)cn2)cc1 [I-130]	≥ 80

SMILES	pest or weed control at 500 ppm [%]
COc1ccc(Oc2ccc(Oc3ccc(C(=O)N(C)c4cccnc4)cn3)cc2)cc1 [I-131]	≥ 80
CCN(C(=O)c1ccc(Oc2ccc(OC(F)(F)F)cc2)nc1)c1cccnc1 [I-132]	≥ 80
CCCN(C(=O)c1ccc(Oc2ccc(OC(F)(F)F)cc2)nc1)c1cccnc1 [I-133]	≥ 80
C=CCN(C(=O)c1ccc(Oc2ccc(OC(F)(F)F)cc2)nc1)c1cccnc1 [I-134]	≥ 80
C#CCN(C(=O)c1ccc(Oc2ccc(OC(F)(F)F)cc2)nc1)c1cccnc1 [I-135]	≥ 80
CN(C(=O)c1ccc(Sc2ncccn2)nc1)c1cccnc1 [I-136]	≥ 80
Cc1ccnc(Sc2ccc(C(=O)N(C)c3cccnc3)cn2)n1 [I-137]	≥ 80
Cc1nc(Sc2ccc(C(=O)N(C)c3cccnc3)cn2)nc(C)c1C [I-138]	≥ 80
CN(C(=O)c1ccc(Oc2ccc3cccnc3c2)nc1)c1cccnc1 [I-141]	≥ 80
CC(C(=O)c1ccc(Oc2cccc3ncccc23)nc1)c1cccnc1 (stereo not drawn) [I-142]	≥ 80
Cc1cc(C)nc(Oc2ccc(C(=O)N(C)c3cccnc3)cn2)n1 [I-144]	≥ 80
COc1cc(OC)nc(Oc2ccc(C(=O)N(C)c3cccnc3)cn2)n1 [I-145]	≥ 80
CN(C(=O)c1cnc(Oc2ccc(C(F)(F)F)cc2)c(Cl)c1)c1cccnc1 [I-146]	≥ 80
CN(C(=O)c1cnc(Oc2ccc(OC(F)(F)F)cc2)c(Cl)c1)c1cccnc1 [I-147]	≥ 80
CN(C(=O)c1cnc(Oc2ccc(S(C)(=O)=O)cc2)c(Cl)c1)c1cccnc1 [I-148]	≥ 80
CN(C(=O)c1cnc(Oc2ccc(C#N)cc2)c(Cl)c1)c1cccnc1 [I-149]	≥ 80
Cc1cc(C)nc(Sc2ncc(C(=O)N(C)c3cccnc3)cc2Cl)n1 [I-152]	≥ 80
CCN(C(=O)c1ccc(Oc2ccc(S(C)(=O)=O)cc2)nc1)c1cccnc1 [I-154]	≥ 80
COc1ccc(C(=O)N(C)c2cccnc2)cn1 [I-155]	≥ 80
CCOc1ccc(C(=O)N(C)c2cccnc2)cn1 [I-156]	≥ 80
CCN(C(=O)c1ccc(Oc2ccc(C(F)(F)F)cc2)nc1)c1cccnc1 [I-157]	≥ 80
Cc1cc(C)nc(Sc2ccc(C(=O)Nc3cccnc3)cn2)n1 [I-159]	≥ 80
